16 compounds from ChEMBL document CHEMBL1201862, “PubChem BioAssay data set” (2004) can be followed below.

Some test systems named below: CCRF-CEM; OVCAR-8; HOP-18; KM12; DMS-273; XF498; A498; DLD-1; HCC 2998; HCT-15; M19-MEL; MDA-MB-231; BT-549; ACHN; M14; MDA-N; Hs-578T; SR; PC-3; 786-0.
Common to all, as to test: DTP human tumour cell line panel, 48 h

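Test compounds were applied to cells in 96-well plates for 48 hours at 5 doses. At the GI50, growth is halved.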 Activity calls are given as the source filed them. Rule as the data show it: active = GI50 up to about 1.1 µM and inactive = higher. Bounds are passed on as bounds.

For orientation: GI50 means the concentration giving 50% growth inhibition. For the compound `COc1cc(/C=C/c2ccc(OC)c(OC)c2)oc(=O)c1`, the GI50 in the assay on CCRF-CEM was > 194 µM (inactive); in the assay with OVCAR-8, 10 µM (inactive); in the assay on HOP-18, 4.88 µM (inactive); in the assay on KM12, > 250 µM (inactive); in the assay with DMS-273 it was > 110 µM (inactive); in the assay on XF498, > 250 µM (inactive). Also, the GI50 is > 169 µM (inactive) in the assay with A498; > 250 µM (inactive) with DLD-1; > 250 µM (inactive) in the assay with HCC 2998; > 250 µM in the assay on HCT-15; > 250 µM (inactive) with M19-MEL.
For the compound `CCCCN1CN2C(=O)C(C(=O)OCC)C(=O)c3sc4nc(SC)nc1c4c32` (centres undefined), the GI50 is 34 µM (inactive) in the assay on CCRF-CEM; 21.6 µM (inactive) in the assay with OVCAR-8; 17.9 µM (inactive) with MDA-MB-231; 16.8 µM (inactive) with KM12; 16.6 µM (inactive) in the assay with BT-549; 1.53 µM (inactive) in the assay with A498. Besides, the GI50 was 17 µM (inactive) in the assay with ACHN; 22.4 µM (inactive) with M14; 17.1 µM (inactive) in the assay with MDA-N; 20 µM in the assay on HCT-15; < 0.01 µM (active) with Hs-578T; 33.1 µM (inactive) in the assay with SR. In addition, the GI50 in the assay on PC-3 was 19.2 µM (inactive).
Regarding `O=NN(CCCl)C(=O)N[C@H]1CC[C@@H](O)CC1`, the GI50 is 12.8 µM (inactive) with CCRF-CEM; 33 µM (inactive) with OVCAR-8; 35.2 µM (inactive) in the assay on HOP-18; 67.5 µM (inactive) with KM12; 34.8 µM (inactive) in the assay with DMS-273; 21.5 µM (inactive) in the assay with XF498. The GI50 is > 100 µM (inactive) in the assay on A498; 24.6 µM (inactive) with DLD-1; 81.5 µM (inactive) with HCC 2998; 21.6 µM with HCT-15; 27.9 µM (inactive) in the assay with M19-MEL.
As for `CCOC(=O)C1=C(C)N2CCCOC2(C)C(C(=O)OC)C1c1cccc([N+](=O)[O-])c1` (centres undefined), the GI50 with CCRF-CEM is 76.6 µM (inactive); with OVCAR-8, 48 µM (inactive); in the assay on KM12 it was 49.9 µM (inactive); in the assay on ACHN, 71.6 µM (inactive); in the assay on M14, > 100 µM (inactive); in the assay on HCC 2998, > 100 µM (inactive). In addition, the GI50 with SR is 35.2 µM (inactive); in the assay on M19-MEL it was > 100 µM (inactive).
For the compound `CCCCNS(=O)(=O)c1n[nH]c(=O)[nH]c1=O`, the GI50 with CCRF-CEM is 14.1 µM (inactive); in the assay on OVCAR-8 it was > 100 µM (inactive); with MDA-MB-231 it was > 100 µM (inactive); in the assay with KM12 it was > 100 µM (inactive); in the assay with BT-549 it was > 100 µM (inactive); in the assay with A498, > 100 µM (inactive). Also, the GI50 is > 100 µM (inactive) in the assay with ACHN; > 100 µM (inactive) in the assay with M14; > 100 µM (inactive) with MDA-N; > 100 µM (inactive) in the assay with 786-0; > 100 µM in the assay on HCT-15; > 100 µM (inactive) in the assay with Hs-578T. For the same compound, the GI50 in the assay with SR and in the assay on PC-3 was > 100 µM (inactive) each time.
Take `CC(C)NC(=O)OCc1c(CO)c2c(n1C)-c1ccccc1CC2`: the GI50 is 12.6 µM (inactive) in the assay with CCRF-CEM; 22.5 µM (inactive) with OVCAR-8; 15 µM (inactive) with HOP-18; 34.4 µM (inactive) in the assay with KM12; 26.8 µM (inactive) in the assay with DMS-273; 14.2 µM (inactive) with XF498. Further, the GI50 was 55.5 µM (inactive) in the assay on A498; 20.7 µM (inactive) in the assay with DLD-1; 19.9 µM (inactive) with HCC 2998; 23.3 µM in the assay on HCT-15; 23.9 µM (inactive) with M19-MEL.
As for `CC1Cc2cc(O)c(O)cc2-c2cc(O)c(O)cc2CC1C` (centres undefined), the GI50 is 14.1 µM (inactive) in the assay on CCRF-CEM; 23.3 µM (inactive) with OVCAR-8; 6.71 µM (inactive) with MDA-MB-231; 4.48 µM (inactive) with KM12; 25 µM (inactive) in the assay with A498; 24.6 µM (inactive) with ACHN. Besides, the GI50 in the assay on M14 was 11.5 µM (inactive); in the assay with HCC 2998 it was 17.4 µM (inactive); in the assay with MDA-N, 3.07 µM (inactive); in the assay on 786-0 it was 14.3 µM (inactive); with HCT-15, 9.29 µM; in the assay with Hs-578T it was 9.04 µM (inactive). The GI50 with SR is 4.85 µM (inactive); in the assay on PC-3 it was 19.3 µM (inactive).
In the case of `COc1ccc(CN/C=N/C(C#N)=C(\N)C#N)cc1OC`, the GI50 was > 100 µM (inactive) in the assay on CCRF-CEM; > 100 µM (inactive) in the assay with OVCAR-8; > 100 µM (inactive) in the assay on MDA-MB-231; > 100 µM (inactive) with KM12; 72.3 µM (inactive) in the assay on BT-549; 54.8 µM (inactive) in the assay with A498. The GI50 is > 100 µM (inactive) in the assay with ACHN; > 100 µM (inactive) in the assay on M14; > 100 µM (inactive) with HCC 2998; > 100 µM (inactive) with MDA-N; > 100 µM (inactive) with 786-0; > 100 µM with HCT-15. Moreover, the GI50 with Hs-578T, in the assay on SR and in the assay on PC-3 was > 100 µM (inactive) each time.
For the compound `CCOC(=O)Cn1c(=O)c(C)cn(COCCO)c1=O`, the GI50 in the assay on CCRF-CEM is > 10 µM (inactive); in the assay on OVCAR-8, > 100 µM (inactive); with MDA-MB-231, > 100 µM (inactive); in the assay on KM12, > 100 µM (inactive); in the assay on BT-549, > 100 µM (inactive); in the assay on A498 it was > 100 µM (inactive). The GI50 with ACHN, in the assay on M14, in the assay with HCC 2998, in the assay with MDA-N, in the assay on Hs-578T and in the assay with PC-3 was > 100 µM (inactive) each time.
For `Cc1ccc(S(=O)(=O)NC(=N)N(C)N=O)cc1`, the GI50 was > 100 µM (inactive) with CCRF-CEM; > 100 µM (inactive) in the assay on OVCAR-8; > 100 µM (inactive) in the assay on MDA-MB-231; > 100 µM (inactive) in the assay on KM12; > 100 µM (inactive) in the assay with BT-549; 71.4 µM (inactive) with A498. Further, the GI50 in the assay on M14 was > 100 µM (inactive); in the assay on MDA-N, > 100 µM (inactive); in the assay with 786-0, > 100 µM (inactive); in the assay on HCT-15, > 100 µM; with Hs-578T, > 100 µM (inactive); in the assay with SR, > 100 µM (inactive). The GI50 with PC-3 is > 100 µM (inactive).
Regarding `Cc1ccc(C2COc3cc(O)c(O)cc3C2)cc1` (centres undefined), the GI50 is 1.82 µM (inactive) with CCRF-CEM; 15 µM (inactive) in the assay on OVCAR-8; 43.5 µM (inactive) with HOP-18; 22.4 µM (inactive) in the assay with KM12; 16.2 µM (inactive) in the assay with DMS-273; 9.12 µM (inactive) with XF498. Further, the GI50 in the assay with A498 was 86.7 µM (inactive); with DLD-1, 17.5 µM (inactive); in the assay on HCC 2998, 35.1 µM (inactive); with HCT-15, 15 µM; in the assay with M19-MEL, 19 µM (inactive).
As for `Cc1cccc2ns[s+]c12`, the GI50 with CCRF-CEM was 33.3 µM (inactive); in the assay on OVCAR-8 it was 47.1 µM (inactive); in the assay with HOP-18, > 100 µM (inactive); in the assay with KM12, > 100 µM (inactive); with DMS-273, 52.4 µM (inactive); in the assay on A498, > 100 µM (inactive). Further, the GI50 is > 100 µM (inactive) in the assay with ACHN; > 100 µM (inactive) in the assay with M14; > 100 µM (inactive) with DLD-1; > 100 µM (inactive) with HCC 2998; 19.4 µM with HCT-15.
As for `C[n+]1c2ccccc2c(NC(CS)C(=O)O)c2ccccc21` (centres undefined), the GI50 in the assay on OVCAR-8 was 19.4 µM (inactive); with HOP-18, 12 µM (inactive); in the assay with KM12, 18.6 µM (inactive); with DMS-273, 22.1 µM (inactive); in the assay on XF498, 18.4 µM (inactive); in the assay on A498, 15.6 µM (inactive). The GI50 is 36.5 µM (inactive) in the assay with ACHN; 27.5 µM (inactive) in the assay on M14; 23.1 µM (inactive) in the assay on DLD-1; 32.9 µM (inactive) with HCC 2998; 24 µM (inactive) in the assay on 786-0; 28.1 µM in the assay on HCT-15. In addition, the GI50 in the assay with SR was 16.4 µM (inactive); in the assay on M19-MEL it was 27.4 µM (inactive).
For `Cc1ccc(NC(Nc2ccc(C)cc2C)=C(C(Cl)=C(Cl)Cl)[N+](=O)[O-])c(C)c1`, the GI50 was 3.35 µM (inactive) with CCRF-CEM; 16.2 µM (inactive) in the assay with OVCAR-8; 15.5 µM (inactive) in the assay with MDA-MB-231; 15.2 µM (inactive) with KM12; 14.2 µM (inactive) with BT-549; 21.3 µM (inactive) in the assay with A498. Also, the GI50 with ACHN was 15.2 µM (inactive); in the assay with M14, 5.36 µM (inactive); in the assay with HCC 2998 it was 18 µM (inactive); with 786-0 it was 16.1 µM (inactive); in the assay with HCT-15 it was 14.9 µM; in the assay on Hs-578T, 22.8 µM (inactive). The GI50 with SR was 2.9 µM (inactive); in the assay on PC-3, 12.4 µM (inactive).
As for `CCN1CCCC(NCc2c3ccccc3c(CNC3CCCN(CC)C3)c3ccccc23)C1` (centres undefined), the GI50 in the assay on CCRF-CEM is 3.34 µM (inactive); in the assay with OVCAR-8, > 33.7 µM (inactive); with HOP-18, 5.92 µM (inactive); in the assay with KM12, 5.45 µM (inactive); with DMS-273, 5.56 µM (inactive); in the assay on XF498, 20.5 µM (inactive). In addition, the GI50 was 12.6 µM (inactive) with A498; 12.8 µM (inactive) with DLD-1; 13.1 µM (inactive) in the assay with HCC 2998; 12.5 µM in the assay with HCT-15; 7.45 µM (inactive) in the assay with M19-MEL.
Consider `CCCCCCCCCCCCCCCCSCC(COC)COP(=O)([O-])OCC[N+](C)(C)C` (centres undefined) [ILMOFOSINE], for which the GI50 in the assay with CCRF-CEM was 2.9 µM (inactive); in the assay with OVCAR-8 it was 9.06 µM (inactive); with HOP-18, 4.12 µM (inactive); with KM12, 0.977 µM (active); in the assay with DMS-273, 1.85 µM (inactive); in the assay on XF498, 6.3 µM (inactive). For the same compound, the GI50 in the assay on A498 was 6.31 µM (inactive); in the assay on DLD-1, 3.03 µM (inactive); in the assay with HCC 2998, 1.52 µM (inactive); in the assay on HCT-15, 2.88 µM; with M19-MEL, 2.79 µM (inactive).
